Values of other authors, collected in patent US12691140B2, “Therapeutic carbon monoxide formulations” (THE BRIGHAM AND WOMEN'S HOSPITAL, INC., priority 2020, dated 2026).

Details: dogs, abdominal insufflation to COHb levels comparable to inhalation

Structure (SMILES): [C-]#[O+] [CO, Carbon monoxide]
- toxicity: no toxicity
